According to patent publication US8783089B2, “Device and method for determining the properties of aerosol formulations” (Boehringer Ingelheim International GmbH, priority 2008, dated 2014):

Assay: Characterisation of the air-liquid release system (Franz diffusion cell, online UV detection at 225 nm) with dissolved active substance
Format: physicochemical
Description: Above the membrane 6 an air chamber is formed as the second compartment 12, and the entire diffusion cell 13 (Franz cell) is surrounded by thermal insulation 9 and can be temperature controlled in the desired manner by means of a hotplate 10. The release medium is mixed by means of a magnetic stirrer 14. In order to characterise the system, first of all salbutamol sulphate, as the sample active substance, was added directly in the form of a dilute solution to the release medium (PBS, phosphate buffered saline) and measured at 225 nm in the photometer. […] Salbutamol sulphate applied to the membrane 6 reaches the maximum concentration after about ten minutes. This means that the membrane 6 forms a diffusion barrier for about six minutes. The total system has a reaction time of about ten minutes, i.e. changes in concentration caused by the release of active substance are detected with a ten minute delay. On the timescale of a typical release test over 24 hours this delay can be disregarded.

Question: What does the source list for salbutamol sulphate?
Answer: time until maximum concentration is reached (applied to the membrane 6 (regenerated cellulose), release medium PBS, 225 nm): about ten; incubation time until the active substance concentration reaches a plateau (dilute solution added directly to the release medium (PBS), measured at 225 nm): about four
